Experimental data taken from US12454536B2, “Deuterated 7-(3-(4-(2-([18F]fluoro)ethoxy)phenyl)propyl)-2-(furan-2-yl)-7H- pyrazolo [4,3-e][1,2,4]triazolo[1,5-C]pyrimidine-5-amine derivatives” (HELMHOLTZ-ZENTRUM DRESDEN-ROSSENDORF E.V., priority 2019, dated 2025).

Tests used:
[1] = molecular target: adenosine A2A receptors (Mus musculus, UniProt Q60613); test: Radiotracer affinity (Kd, Bmax); assay type: binding; conditions: n=5
[2] = Stability of radiotracer in solutions and porcine plasma; assay type: in vitro ADME; conditions: 37° C., one hour
Method: [^18F]FLUDA has shown to be stable in a sodium chloride, PBS, n-octanol solution and in porcine plasma at 37° C. for one hour (PBS=phosphate buffered salt solution). Using the conventional “Shake-flask” method a log D74=2.01±0.07 (n=3) has been established.

[3] = In-vivo metabolite study in female CD-1 mice (radio-HPLC); conditions: for intact radiotracer in the brain / intact radiotracer in the plasma: radio-HPLC
Method: In the in-vivo metabolite study in female CD-1 mice after 15 min p.i. in the brain 93% (radio-HPLC, n=3, extraction yield 98%) and in the plasma 79% (radio-HPLC, n=3, extraction yield 83%) of intact radiotracers have been detected.

[4] = system: striatum (brain slices); test: In-vitro autoradiography in mouse brain slices; assay type: binding; conditions: brain slices of mice
[5] = PET study in healthy CD-1 mice; assay type: in vivo; conditions: striatum, 15 min p.i., n=3
[6] = molecular target: hA2A (Homo sapiens, UniProt P29274); test: Affinity for human adenosine A2A receptor (Ki); assay type: binding
[7] = molecular target: hA1 (Homo sapiens, UniProt P30542); test: biochemical
[8] = female CD-1 mice, 15 min p.i., n=3
[9] = repeated study (Example 6A / Comparison example 1A)
[10] = further tests, taking into account the above data, n=3

hA1, sequence (P30542 whole entry): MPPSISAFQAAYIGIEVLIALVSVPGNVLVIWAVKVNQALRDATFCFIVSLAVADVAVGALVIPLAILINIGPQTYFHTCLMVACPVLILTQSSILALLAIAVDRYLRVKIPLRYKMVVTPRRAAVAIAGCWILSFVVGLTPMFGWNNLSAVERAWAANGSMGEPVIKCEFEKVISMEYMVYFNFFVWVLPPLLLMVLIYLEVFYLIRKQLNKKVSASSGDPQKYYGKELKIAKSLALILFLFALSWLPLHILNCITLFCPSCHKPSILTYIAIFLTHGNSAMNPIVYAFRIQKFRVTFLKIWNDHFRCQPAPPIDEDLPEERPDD
hA2A, sequence (P29274 whole entry): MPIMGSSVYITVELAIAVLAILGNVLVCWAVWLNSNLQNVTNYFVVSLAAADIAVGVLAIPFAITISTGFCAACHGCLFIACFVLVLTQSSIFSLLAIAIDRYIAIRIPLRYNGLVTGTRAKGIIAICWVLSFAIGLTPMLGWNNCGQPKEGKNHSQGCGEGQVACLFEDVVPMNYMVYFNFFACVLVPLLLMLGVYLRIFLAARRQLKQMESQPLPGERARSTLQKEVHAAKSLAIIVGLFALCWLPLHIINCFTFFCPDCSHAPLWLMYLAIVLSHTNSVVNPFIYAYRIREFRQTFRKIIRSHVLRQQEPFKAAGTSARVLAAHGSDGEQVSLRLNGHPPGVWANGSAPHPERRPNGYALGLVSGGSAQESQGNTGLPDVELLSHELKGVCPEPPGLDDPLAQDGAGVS
adenosine A2A receptors, sequence (Q60613 whole entry): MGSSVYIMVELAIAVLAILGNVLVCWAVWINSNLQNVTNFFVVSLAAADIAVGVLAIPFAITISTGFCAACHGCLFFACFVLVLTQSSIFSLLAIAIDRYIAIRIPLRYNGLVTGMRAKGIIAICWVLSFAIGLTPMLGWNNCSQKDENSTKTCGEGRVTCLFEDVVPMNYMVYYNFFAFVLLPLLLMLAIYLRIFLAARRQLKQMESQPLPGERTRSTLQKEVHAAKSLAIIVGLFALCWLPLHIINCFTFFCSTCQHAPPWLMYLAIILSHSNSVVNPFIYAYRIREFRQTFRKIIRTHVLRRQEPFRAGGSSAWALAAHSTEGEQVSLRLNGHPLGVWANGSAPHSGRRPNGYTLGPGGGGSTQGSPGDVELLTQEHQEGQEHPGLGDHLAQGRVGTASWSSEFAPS

Bmax [1] | stability in PBS [2] | stability in n-octanol solution [2] | stability in porcine plasma [2] | stability in sodium chloride solution [2] | metabolic stability compared to 18F-labeled compound D ([3]; mouse, in vivo) | cerebral uptake SUV [5] | Structure (SMILES) | intact radiotracer in the brain [3, 8] | intact radiotracer in the plasma [3, 8] | intact radiotracer in the brain [3, 9] | intact radiotracer in the plasma [3, 9] | change of the radiotracer by A2A-selective ligands [4] | enrichment of the radiotracer in the target region (striatum) [4] | Ki ([6]; first determination) | Ki [6, 10] | Ki ([7]; first determination) | Ki [7, 10] | Ki ([7]; n=4)
556 ± 143 fmol/mg | stable | stable | stable | stable | significantly higher | 0.8 | [2H]C([2H])([18F])C([2H])([2H])Oc1ccc(CCCn2ncc3c2nc(N)n2nc(-c4ccco4)nc32)cc1 [[^18F]FLUDA, 7-(3-(4-(2-([^18F]fluoro)ethoxy-1,1,2,2-d4)phenyl)propyl)-2-(furan-2-yl)-7H-pyrazolo[4,3-e][1,2,4]triazolo[1,5-c]pyrimidine-5-amine] | 93% | 79% | 100% | 82% | change of the radiotracer by means of A2A-selective ligands | selective enrichment |  |  |  |  | 
 |  |  |  |  |  |  | [2H]C([2H])(F)C([2H])([2H])Oc1ccc(CCCn2ncc3c2nc(N)n2nc(-c4ccco4)nc32)cc1 (single isomer, unassigned) [FLUDA, 7-(3-(4-(2-(fluoro)ethoxy-1,1,2,2-d4)phenyl)propyl)-2-(furan-2-yl)-7H-pyrazolo[4,3-e][1,2,4]triazolo[1,5-c]pyrimidine-5-amine] |  |  |  |  |  |  | 0.609 nM | 0.74 ± 0.26 nM | 767 nM | > 1000 nM | 
 |  |  |  |  |  |  | Nc1nc2c(cnn2CCCc2ccc(OCC[18F])cc2)c2nc(-c3ccco3)nn12 (single isomer, unassigned) [[^18F]D, 7-(3-(4-(2-([^18F]fluoro)ethoxy)phenyl)propyl)-2-(furan-2-yl)-7H-pyrazolo[4,3-e][1,2,4]triazolo[1,5-c]pyrimidine-5-amine, reference compound] | 68% | 70% | 71% | 41% |  |  |  |  |  |  | 203 nM
